This is an account of results in patent US20020009509A1, “Soya extract containing lipids, process for its production, and pharmaceutical and cosmetic composition” (priority 1999, published 2002).

In this experiment the test system is dry skin. Nature of the experiment: Skin hydration of dry skin measured as electric capacitance of the horny layer (Corneometer CM 820). It counts as in vivo. Conditions: 1.5% extract solution or 2% collagen. Here is the method:
The treatment according to the invention was with an emulsion, in water, containing the extract according to the invention and 2% hydroxyethylcellulose. Skin hydration was measured as electric capacitance of the horny layer using a commercially available device (Corneometer CM 820, Courage+ Kazaka, Cologne, Germany). The mean value of five consecutive measurements was determined and recorded as the measured value. The electric capacitance is expressed by means of an arbitrary scale ranging from 0 to 100 units. Groups of 10 subjects were used.

On to collagen, for which the “Hydration (units), After 60 min” value (60 min after treatment, arbitrary scale 0 to 100 units, groups of 10 subjects, *P < 0.05, **P < 0.001) is on record as 57.7 ± 0.1* units. The “Hydration, Change %” value (after 60 min versus starting value) was found to be 35.6%. Further, under “before treatment, arbitrary scale 0 to 100 units, groups of 10 subjects”, the “Hydration (units), Starting value” was 42.7 ± 0.4 units.
